# Patent publication US6495680B1, “Helices and nanotubes on folding compositions and method of making same” (The University of Toledo, priority 2000, dated 2002)
# Experiment: Solubility of oligomers in organic solvents
# Assay type: physicochemical
# Excerpt: Oligomers such as the homologues H, K, L, M, N, and O are synthesized by treating acid chloride with the corresponding amines.
# From H to N, all the amide-H resonances appear at positions >9.2 ppm. […] That one amide-H resonance, appears at δ8.86.
structure (smiles),measurement,setting,value
COc1ccccc1NC(=O)c1cc(NC(=O)c2cc([N+](=O)[O-])c(OC)cc2OC)c(OC)cc1OC [K],solubility in DMF,DMF,increasingly insoluble
same,behaviour of the freshly prepared compound in DMF on standing,"freshly prepared, added to DMF, standing at room temperature, precipitation faster at elevated temperatures",gradually precipitate out
